Measurements as given in US20120142771A1, “BIPHENYLACETAMIDE DERIVATIVE” (Dainippon Sumitomo Pharma Co., Ltd., priority 2008, published 2012).
Read-outs that look alike come from different tables or passages of the source.

What was measured:
[1] = test system: subcutaneously pentetrazol-injected model (scPTZ); assay: Subcutaneously pentetrazol-injected model (scPTZ) test; type: in vivo, mice; details: pentetrazol 85 mg/kg s.c. after 1 hour; for responders at 50 mg/kg / responders at 100 mg/kg: Mus musculus, po, 1 h, read-out: scPTZ (positive number/tested number) (converted); for responders at 50 mg/kg / responders at 100 mg/kg / scPTZ (positive number/tested number): Slc: ddY male mice, 3 per group, observed 30 minutes for clonic convulsion; for anticonvulsant action in subcutaneously pentetrazol-injected model (scPTZ) test: mice, oral 50 or 100 mg/kg
In short: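 Male Slc:ddY mice (20-30 g, 3 per group) dosed orally at 50 or 100 mg/kg; pentetrazol 85 mg/kg given subcutaneously 1 h later. Controls received 0.5% tragacanth or 0.5% methylcellulose vehicle.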

[2] = test system: Slc: ddY male mice; assay: Rotarod performance test (motor disturbance); type: in vivo; details: 1 hour after administration, 10 mice
Protocol: Test 5: Rotarod Performance Test
Test 5 evaluates whether motor disturbance is caused by medicaments. On the day before the test, Slc: ddY male mice (body weight 20-30 g) were trained so that they could walk on a rotarod apparatus for 3 minutes without falling, wherein a cylinder of 4 cm diameter is rotated with a speed of 13 rotations per minute. Test compounds were orally administered to a group consisting of 10 mice. […] When the mice fell down within 100 seconds because of disturbed motor coordination, such mice were counted as positive. To the control mice, 0.5% methylcellulose solution was administered.

[3] = test system: 6 Hz psychomotor seizure model; assay: 6 Hz psychomotor seizure model; type: in vivo, mice; details: for ED50: Mus musculus; for 6 Hz (Positive number/tested number): dose 100 mg/kg, 30 minutes or 1 hour after administration
In short: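 Anticonvulsant activity was tested in the 6 Hz psychomotor seizure model in mice, a model reflecting seizures resistant to current antiepileptic drugs. 30 minutes or an hour after dosing, corneal electrical stimulation (6 Hz, 32 mA, 3 seconds) was applied to provoke forelimb myoclonus, Straub tail and immobility. Control mice received 0.5% tragacanth solution, 0.5% methylcellulose solution or olive oil.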

[4] = test system: maximum electroshock seizure (MES) model; assay: Maximum electroshock seizure (MES) model test; type: in vivo, mice; details: for responders at 50 mg/kg / responders at 100 mg/kg: Mus musculus, po, 1 h; for anticonvulsant action in maximum electroshock seizure (MES) model test: mice, oral 50 or 100 mg/kg, 1 hour after administration
In short: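 Male Slc: ddY mice (3 per group, 20-30 g) received compound orally at 50 or 100 mg/kg; controls got 0.5% tragacanth or 0.5% methylcellulose. One hour post-dose, corneal stimulation (60 Hz, 25 mA, 0.2 s) induced tonic hind-limb extensor convulsion.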

[5] = test system: Crl: CD (SD) male rats; assay: Evaluation of antidepressant effect (forced swimming, duration of immobility); type: in vivo; details: same conditions
Description: (§1) Meanwhile, there are no reports about animal models which provide a good clinical prediction to evaluate the improving efficacy for bipolar disorder. However, bipolar disorder comprises “manic state” and “depressive state”, and some animals are reported to be useful as a model to evaluate the improvement of each pathological condition individually. In general, an index of manic state is excessive hyperactivity induced by administering methamphetamine and chlordiazepoxide in combination, and that of depressive state is immobility induced by forced swimming.
Test 6: Evaluation of Antidepressant Effect
Test 6 is a typical test to evaluate the antidepressant activity of medicaments (Porsolt et al., Nature, 266: 730-732, 1977, Porsolt et al., Eur. J. Pharmacol., 47: 379-391, 1978). Crl: CD (SD) male rats (12 rats in each group, body weight 200-250 g) were forced to swim for 15 minutes in a water pool with 200 mm diameter. In the pool, water was filled up to a depth of 205 mm from the bottom of the pool, and thus the rats could not touch the bottom of the pool with their hind limbs. Fifteen minutes after the completion of the forced swimming, test compounds were orally administered to the rats. On the next day, the test compounds were administered to the rats at the same dose as the previous day, and the rats were put in the pool for 5 minutes at the same clock time as the previous day. […] The antidepressant effect was evaluated by calculating how long the duration of immobility was shortened against the control. To the control, 0.5% methylcellulose solution was administered.

[6] = test system: Slc: C57BL/6J male mice; assay: Evaluation of antimanic effect (methamphetamine and chlordiazepoxide induced hyperactivity, locomotor distance); type: in vivo; details: same conditions
Description: as §1
Test 7: Evaluation of Antimanic Effect
Test 7 evaluates the antimanic effect of medicaments. The evaluation system is a test system whose utility has been already confirmed with a known antimanic agent which is clinically used as a mood-stabilizing drug, not as a drug for treating schizophrenia (Arban et al., Behay. Brain Res., 158:123-132, 2005, Foreman et al., Pharmacol. Biochem. Behay., 89: 523-534, 2008). Test compounds were orally administered to Slc: C57BL/6J male mice (8 mice in each group, body weight 20-26 g). After 30 minutes of administration, methamphetamine (4 mg/kg) and chlordiazepoxide (10 mg/kg) were administered intraperitoneally. Then, the mice were allowed to move freely in an acrylic cage (W 360 mm×D 230 mm×H 310 mm) for 90 minutes. The locomotor distances of the mice were measured with Ethovision software (Ver. 3.1). Among the 90 minutes, the result of the latter 60 minutes with the exception of the first 30 minute's result for adaptation to the new environment was used as data of the locomotor distance. The antimanic effect was evaluated by calculating how long locomotor distance was shortened against the control. To the control mice, 0.5% methylcellulose solution was administered.

[7] = test system: amygdala-kindling model; assay: Amygdala-kindling model in rats; type: in vivo
Description: Test 3: Test with Amygdala-Kindling Model in Rats
Test 3 evaluates the anticonvulsant action of medicaments in rats, besides mice in Tests 1 and 2. Animal model (kindling model) used herein is a very similar model to clinical findings of focal onset seizures (i.e. simple partial seizure, complex partial seizure, and secondarily generalized tonic-clonic seizure), which is known to provide excellent clinical prediction. A chronic electrode was implanted in the cortex (frontal and posterior regions) and the amygdala of Slc: Wistar male rats (body weight 250-300 g). One week after the above operation, electrical stimulation (50 Hz, 400 μA, 1 second) into the amygdala was conducted once a day for about two weeks. The stimulation condition was determined according to the method of Loscher et al. [Epilepsy Res., 40: 63-77 (2000)]. The stimulation was continued until the seizure stage 5 in the seizure severity stages according to the method of Racine et al. [Motor seizure. Electroenceph. Clin. Neurophysiol., 32:281-294 (1972)] was observed 10 consecutive times. Kindling model was thus completed. Then, test compounds (100 mg/kg) were orally administered to this model. After an hour of administration, the rats were evaluated based on three parameters, i.e., a threshold stimulus current to induce seizure (i.e. seizure threshold), the duration of afterdischrage observed on an electroencephalogram, and seizure severity (stage scores 1-5). The results of the seizure threshold and the afterdischarge duration were shown as average percentage of change from the pretreatment value obtained before the administration of each test compound. To the control rats, 0.5% tragacanth solution was administered. Minus means decreased or shortened.

[8] = 6 Hz psychomotor seizure model, mice, oral, read-out: ED50
[9] = 50 mg/kg oral, Slc: ddY male mice, 3 per group, electrical stimulation 1 hour after administration, inhibition of hind limb extension, read-out: MES (positive number/tested number) (converted)
[10] = 100 mg/kg oral, Slc: ddY male mice, 3 per group, electrical stimulation 1 hour after administration, inhibition of hind limb extension, read-out: MES (positive number/tested number) (converted)

SMILES | responders at 50 mg/kg ([1]; 50 mg/kg oral) [%] | responders at 100 mg/kg ([1]; 100 mg/kg oral) [%] | The rate of mice which fell within 100 seconds (%) ([2]; 100 mg/kg oral) | The rate of mice which fell within 100 seconds (%) ([2]; 200 mg/kg oral) | The rate of mice which fell within 100 seconds (%) ([2]; 300 mg/kg oral) | The rate of mice which fell within 100 seconds (%) ([2]; 400 mg/kg oral) | ED50 [3, 8] [mg/kg] | 6 Hz (Positive number/tested number) ([3]; mice, oral) | responders at 50 mg/kg [4, 9] [%] | responders at 100 mg/kg [4, 10] [%] | anticonvulsant action in subcutaneously pentetrazol-injected model (scPTZ) test [1] | anticonvulsant action in maximum electroshock seizure (MES) model test [4] | further results
NC(=O)Cc1cc(F)ccc1-c1ccccc1F [Example 46, 2-(2′,4-difluorobiphenyl-2-yl)acetamide] | 0 | 100 | 20 | 20 | 60 | 90 | 120 | 5/10/100 | 66.7 | 100 | – | – | –
NC(=O)Cc1ccccc1-c1cc(Cl)cc(Cl)c1 [Example 71, 2-(3′,5′-dichlorobiphenyl-2-yl)acetamide] | 66.7 | 66.7 | 0 | 20 | 30 | 70 | 82.8 | 7/10/100 | 66.7 | 100 | anticonvulsant action was observed | anticonvulsant action was observed | –
Nc1nnc(-c2cccc(Cl)c2Cl)c(N)n1 [Lamotrigine, reference compound] | – | – | – | – | – | – | – | – | – | – | – | – | duration of immobility [5]: dose-dependently shortened; locomotor distance [6]: dose-dependently shortened
NC(=O)[C@H](O)c1ccccc1-c1cc(Cl)cc(Cl)c1 (single isomer, unassigned) [Example 215, 2-(3′,5′-Dichlorobiphenyl-2-yl)-2R-hydroxyacetamide] | 0 | 66.7 | – | – | – | – | 64.8 | 7/10/100 | 66.7 | 66.7 | – | – | –
NC(=O)C(O)c1ccccc1-c1ccccc1 (stereo not shown) [Example 59, 2-(Biphenyl-2-yl)-2-hydroxyacetamide] | 0 | 66.7 | – | – | – | – | 91.5 | 7/10/100 | 100 | 100 | – | – | –
NC(=O)Cc1ccccc1-c1cccc(F)c1 [Example 25, 2-(3′-fluorobiphenyl-2-yl)acetamide] | 100 | 100 | 0 | 10 | 60 | 90 | 61.9 | 10/10/100 | 100 | 100 | anticonvulsant action was observed | anticonvulsant action was observed | efficacy in 6 Hz psychomotor seizure model ([3]; mice, oral administration at a dose of 100 mg/kg): potent efficacy; Seizure threshold (uA) Δ % change ([7]; 100 mg/kg oral, 1 hour after administration, average percentage of change from pretreatment value): 69.4%; Afterdischarge duration (sec) Δ % change ([7]; 100 mg/kg oral, 1 hour after administration, change from pretreatment value, minus means shortened): −100%; Seizure severity score ([7]; 100 mg/kg oral, 1 hour after administration, stage scores 1-5): 0.0; efficacy against the amygdala-kindling model ([7]; oral administration at a dose of 100 mg/kg): potent efficacy
NC(=O)C(F)c1ccccc1-c1ccccc1 (single isomer, unassigned) [Example 209, 2-(Biphenyl-2-yl)-2-fluoroacetamide] | – | – | – | – | – | – | – | 6/10/100 | – | – | anticonvulsant action was observed | anticonvulsant action was observed | scPTZ (positive number/tested number) ([1]; 50 mg/kg oral): 2/3; scPTZ (positive number/tested number) ([1]; 100 mg/kg oral): 2/3; ED50 ([3]; po): 109 mg/kg; MES (positive number/tested number) ([4]; 50 mg/kg oral, Slc: ddY male mice, 3 per group, electrical stimulation 1 hour after administration, inhibition of hind limb extension): 3/3; responders at 100 mg/kg ([4]; read-out: MES (positive number/tested number), 100 mg/kg oral, Slc: ddY male mice, 3 per group, electrical stimulation 1 hour after administration, inhibition of hind limb extension): 100%
